In US10364247B2, “Preparation and use of novel protein kinase inhibitors” (Ruijin Hospital Affiliated to Shanghai Jiao Tong University …, priority 2015, dated 2019):

What was measured:
Experiment in all cases: KINOMEscan competition binding
KIT(V559D) = KIT(V559D) (Homo sapiens, UniProt P10721, V559D); settings: read-out: Percent Control
Procedure: (§1) KINOMEscan™ is based on a competition binding assay that quantitatively measures the ability of a compound to compete with an immobilized, active-site directed ligand (Fabian et al. (2005) Nat. Biotechnol. 23, 329; Karaman et al. (2008) Nat. Biotechnol. 26, 127). The compound was screened at 10 μM, and results for primary screen binding interactions are reported as ‘% Ctrl’, where lower numbers indicate stronger hits. The results for kinases targets with a % Ctrl less than 30 can be seen in Table 2.

[1] = target: ABL1(T315I)-nonphosphorylated (Homo sapiens, UniProt P00519, T315I); settings: read-out: Percent Control
Procedure: as §1

FRK = FRK (Homo sapiens, UniProt P42685); settings: read-out: Percent Control
Procedure: as §1

CIT = target: T1, CIT (Homo sapiens, UniProt O14578); settings: read-out: Percent Control
T1 construct: purchased KINOMEscan (panel service)
Procedure: as §1

MLK3 = MLK3 (Homo sapiens, UniProt Q16584); settings: MLK3 (Entrez MAP3K11), read-out: Percent Control
MLK3, sequence (Q16584 whole entry): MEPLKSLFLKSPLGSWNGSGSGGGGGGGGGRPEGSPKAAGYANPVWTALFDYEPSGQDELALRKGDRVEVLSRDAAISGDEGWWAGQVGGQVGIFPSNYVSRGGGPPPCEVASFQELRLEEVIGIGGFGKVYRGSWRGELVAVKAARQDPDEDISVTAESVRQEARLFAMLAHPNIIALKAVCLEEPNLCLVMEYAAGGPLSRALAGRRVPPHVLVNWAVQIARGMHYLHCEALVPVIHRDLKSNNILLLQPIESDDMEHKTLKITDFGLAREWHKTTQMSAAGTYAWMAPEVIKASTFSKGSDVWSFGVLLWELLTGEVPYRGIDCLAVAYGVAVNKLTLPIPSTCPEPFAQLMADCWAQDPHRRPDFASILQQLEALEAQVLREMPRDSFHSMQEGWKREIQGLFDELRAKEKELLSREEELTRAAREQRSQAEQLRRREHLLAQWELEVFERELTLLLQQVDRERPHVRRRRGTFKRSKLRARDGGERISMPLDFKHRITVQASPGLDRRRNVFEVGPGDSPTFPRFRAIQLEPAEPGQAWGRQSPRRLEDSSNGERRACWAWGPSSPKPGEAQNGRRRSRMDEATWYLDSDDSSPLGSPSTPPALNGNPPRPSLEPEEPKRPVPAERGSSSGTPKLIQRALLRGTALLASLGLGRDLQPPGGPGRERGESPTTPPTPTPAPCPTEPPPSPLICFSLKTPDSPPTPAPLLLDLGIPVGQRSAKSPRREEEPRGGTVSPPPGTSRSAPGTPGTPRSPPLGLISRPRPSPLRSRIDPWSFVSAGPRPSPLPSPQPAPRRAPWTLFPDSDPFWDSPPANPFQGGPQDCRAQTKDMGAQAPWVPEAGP
Procedure: as §1

SIK = SIK (Homo sapiens, UniProt P57059); settings: SIK (Entrez SIK1), read-out: Percent Control
Procedure: as §1

YSK4 = YSK4 (Homo sapiens, UniProt Q56UN5); settings: read-out: Percent Control
Procedure: as §1

[2] = target: ABL1(F317I)-phosphorylated (Homo sapiens, UniProt P00519, F317I); settings: read-out: Percent Control
Procedure: as §1

[3] = target: ABL1(F317L)-phosphorylated (Homo sapiens, UniProt P00519, F317L); settings: read-out: Percent Control
Procedure: as §1

MAP3K2 = MAP3K2 (Homo sapiens, UniProt Q9Y2U5); settings: read-out: Percent Control
MAP3K2, sequence (Q9Y2U5 whole entry): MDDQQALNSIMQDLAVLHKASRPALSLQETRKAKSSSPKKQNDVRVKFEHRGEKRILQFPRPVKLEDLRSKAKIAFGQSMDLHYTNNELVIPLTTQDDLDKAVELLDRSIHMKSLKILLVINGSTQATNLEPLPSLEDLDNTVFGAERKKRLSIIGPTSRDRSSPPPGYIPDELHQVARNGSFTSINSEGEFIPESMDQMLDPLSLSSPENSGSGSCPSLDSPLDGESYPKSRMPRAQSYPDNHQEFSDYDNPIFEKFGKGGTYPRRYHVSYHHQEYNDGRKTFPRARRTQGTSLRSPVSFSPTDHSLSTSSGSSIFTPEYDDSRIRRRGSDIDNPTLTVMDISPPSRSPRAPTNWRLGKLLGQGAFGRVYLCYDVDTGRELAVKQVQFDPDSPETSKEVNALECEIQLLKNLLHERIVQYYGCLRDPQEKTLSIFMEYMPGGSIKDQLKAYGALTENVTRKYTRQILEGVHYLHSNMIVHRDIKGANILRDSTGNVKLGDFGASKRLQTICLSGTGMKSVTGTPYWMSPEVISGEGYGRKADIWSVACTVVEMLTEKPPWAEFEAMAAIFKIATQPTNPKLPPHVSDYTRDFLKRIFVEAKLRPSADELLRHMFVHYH
Procedure: as §1

FLT3(D835H) = FLT3(D835H) (Homo sapiens, UniProt P36888, D835H); settings: read-out: Percent Control
Procedure: as §1

p38-beta = p38-beta (Homo sapiens, UniProt Q15759); settings: p38-beta (Entrez MAPK11), read-out: Percent Control
Procedure: as §1

FLT4 = FLT4 (Homo sapiens, UniProt P35916); settings: read-out: Percent Control
FLT4, sequence (P35916 25-1363): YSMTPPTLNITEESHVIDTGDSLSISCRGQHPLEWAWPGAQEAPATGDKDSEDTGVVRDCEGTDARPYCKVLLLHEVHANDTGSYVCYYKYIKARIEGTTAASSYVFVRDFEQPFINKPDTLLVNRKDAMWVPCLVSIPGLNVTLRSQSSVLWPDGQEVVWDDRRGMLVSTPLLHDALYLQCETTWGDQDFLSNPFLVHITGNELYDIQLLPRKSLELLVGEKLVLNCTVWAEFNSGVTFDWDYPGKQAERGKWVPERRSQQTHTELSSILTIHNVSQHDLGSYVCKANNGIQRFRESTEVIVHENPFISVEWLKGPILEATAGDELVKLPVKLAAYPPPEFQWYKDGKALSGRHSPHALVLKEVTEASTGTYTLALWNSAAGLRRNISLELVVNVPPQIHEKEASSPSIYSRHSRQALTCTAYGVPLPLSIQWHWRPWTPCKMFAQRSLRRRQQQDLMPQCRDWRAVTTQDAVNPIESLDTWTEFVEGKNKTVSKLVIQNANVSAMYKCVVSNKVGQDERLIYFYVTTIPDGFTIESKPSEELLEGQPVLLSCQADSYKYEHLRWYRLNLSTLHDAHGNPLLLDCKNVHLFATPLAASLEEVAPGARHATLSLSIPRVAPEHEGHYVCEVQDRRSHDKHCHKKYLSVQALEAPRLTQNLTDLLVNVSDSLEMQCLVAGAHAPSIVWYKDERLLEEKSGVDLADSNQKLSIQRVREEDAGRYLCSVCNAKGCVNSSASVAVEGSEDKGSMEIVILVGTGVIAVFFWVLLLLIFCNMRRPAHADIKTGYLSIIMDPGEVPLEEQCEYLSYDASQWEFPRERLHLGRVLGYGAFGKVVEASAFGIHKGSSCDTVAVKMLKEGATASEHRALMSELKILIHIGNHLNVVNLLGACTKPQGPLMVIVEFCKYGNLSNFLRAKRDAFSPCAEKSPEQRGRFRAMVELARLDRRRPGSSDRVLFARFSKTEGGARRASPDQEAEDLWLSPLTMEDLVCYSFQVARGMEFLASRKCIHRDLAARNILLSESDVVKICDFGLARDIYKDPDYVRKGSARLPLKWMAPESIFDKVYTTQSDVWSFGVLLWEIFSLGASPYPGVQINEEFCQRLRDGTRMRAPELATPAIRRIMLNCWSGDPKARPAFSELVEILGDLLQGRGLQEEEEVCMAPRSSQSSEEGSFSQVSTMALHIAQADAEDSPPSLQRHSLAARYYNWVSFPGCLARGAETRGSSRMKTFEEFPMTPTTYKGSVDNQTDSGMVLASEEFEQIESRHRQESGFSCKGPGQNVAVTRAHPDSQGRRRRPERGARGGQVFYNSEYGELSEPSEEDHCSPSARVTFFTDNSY
Procedure: as §1

FLT1 = FLT1 (Homo sapiens, UniProt P17948); settings: read-out: Percent Control
Procedure: as §1

BMX = BMX (Homo sapiens, UniProt P51813); settings: read-out: Percent Control
Procedure: as §1

EPHB6 = EPHB6 (Homo sapiens, UniProt O15197); settings: read-out: Percent Control
Procedure: as §1

MEK5 = MEK5 (Homo sapiens, UniProt Q13163); settings: MEK5 (Entrez MAP2K5), read-out: Percent Control
MEK5, sequence (Q13163 whole entry): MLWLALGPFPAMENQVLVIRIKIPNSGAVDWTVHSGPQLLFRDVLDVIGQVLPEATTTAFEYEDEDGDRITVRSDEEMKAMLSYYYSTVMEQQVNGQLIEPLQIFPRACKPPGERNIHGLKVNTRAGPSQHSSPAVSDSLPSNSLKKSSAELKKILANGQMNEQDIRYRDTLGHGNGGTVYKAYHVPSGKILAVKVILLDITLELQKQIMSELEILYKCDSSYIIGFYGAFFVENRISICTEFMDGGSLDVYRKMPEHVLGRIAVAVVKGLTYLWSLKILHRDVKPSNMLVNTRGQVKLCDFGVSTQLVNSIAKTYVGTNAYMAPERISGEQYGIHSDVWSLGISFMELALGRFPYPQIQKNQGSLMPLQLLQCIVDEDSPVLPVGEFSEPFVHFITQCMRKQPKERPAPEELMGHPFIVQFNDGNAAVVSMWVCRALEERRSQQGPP
Procedure: as §1

RET(V804L) = target: T2, RET(V804L) (Homo sapiens, UniProt P07949, V804L); settings: read-out: Percent Control
T2 construct: purchased KINOMEscan (panel service)
Procedure: as §1

TRKC = target: T3, TRKC (Homo sapiens, UniProt Q16288); settings: TRKC (Entrez NTRK3), read-out: Percent Control
T3 construct: purchased KINOMEscan (screening service)
Procedure: as §1

EGFR(T790M) = target: T4, EGFR(T790M) (Homo sapiens, UniProt P00533, T790M); settings: read-out: Percent Control
T4 construct: purchased KINOMEscan (screening service)
Procedure: as §1

CTK = CTK (Homo sapiens, UniProt P42679); settings: CTK (Entrez MATK), read-out: Percent Control
Procedure: as §1

TNK2 = TNK2 (Homo sapiens, UniProt Q07912); settings: read-out: Percent Control
Procedure: as §1

FGR = FGR (Homo sapiens, UniProt P09769); settings: read-out: Percent Control
Procedure: as §1

EPHA3 = target: T5, EPHA3 (Homo sapiens, UniProt P29320); settings: read-out: Percent Control
T5 construct: purchased KINOMEscan (screening service)
T5 sequence (P29320 21-983): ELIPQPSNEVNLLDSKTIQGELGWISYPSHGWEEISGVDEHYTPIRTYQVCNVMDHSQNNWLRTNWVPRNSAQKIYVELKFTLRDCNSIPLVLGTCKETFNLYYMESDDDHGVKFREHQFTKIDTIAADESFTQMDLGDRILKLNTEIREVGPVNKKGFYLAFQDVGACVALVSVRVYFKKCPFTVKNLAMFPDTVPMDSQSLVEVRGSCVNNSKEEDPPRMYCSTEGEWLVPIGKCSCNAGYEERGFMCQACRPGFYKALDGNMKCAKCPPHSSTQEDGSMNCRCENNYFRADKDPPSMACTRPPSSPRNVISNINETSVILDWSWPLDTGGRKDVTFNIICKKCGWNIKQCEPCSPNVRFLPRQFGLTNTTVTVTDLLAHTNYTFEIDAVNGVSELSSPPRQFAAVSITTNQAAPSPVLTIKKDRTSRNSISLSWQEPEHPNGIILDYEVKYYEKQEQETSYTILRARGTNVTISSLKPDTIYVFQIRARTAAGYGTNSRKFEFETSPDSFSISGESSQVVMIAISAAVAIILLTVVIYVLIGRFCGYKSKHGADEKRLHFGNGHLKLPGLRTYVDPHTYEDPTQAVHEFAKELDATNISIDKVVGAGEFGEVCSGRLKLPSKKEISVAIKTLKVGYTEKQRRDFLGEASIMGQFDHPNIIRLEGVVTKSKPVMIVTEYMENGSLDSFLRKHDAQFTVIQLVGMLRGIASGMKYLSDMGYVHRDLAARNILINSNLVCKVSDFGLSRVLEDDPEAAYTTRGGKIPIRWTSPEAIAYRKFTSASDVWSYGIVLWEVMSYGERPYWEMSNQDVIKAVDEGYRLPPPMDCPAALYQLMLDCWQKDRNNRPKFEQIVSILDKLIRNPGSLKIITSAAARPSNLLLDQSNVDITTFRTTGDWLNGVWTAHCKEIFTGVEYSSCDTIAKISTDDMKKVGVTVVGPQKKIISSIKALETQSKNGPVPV
Procedure: as §1

[4] = target: T6, JAK3(JH1domain-catalytic) (Homo sapiens, UniProt P52333); settings: read-out: Percent Control
T6 construct: JAK3(JH1domain-catalytic)
Procedure: as §1

TNK1 = target: T7, TNK1 (Homo sapiens, UniProt Q13470); settings: read-out: Percent Control
T7 construct: purchased KINOMEscan (screening service)
Procedure: as §1

PIP5K1C = target: T8, PIP5K1C (Homo sapiens, UniProt O60331); settings: read-out: Percent Control
T8 construct: purchased KINOMEscan (screening service)
Procedure: as §1

TIE2 = TIE2 (Homo sapiens, UniProt Q02763); settings: TIE2 (Entrez TEK)
Procedure: as §1

VEGFR2 = VEGFR2 (Homo sapiens, UniProt P35968); settings: VEGFR2 (Entrez KDR), read-out: Percent Control
Procedure: as §1

IKK-beta = target: T9, IKK-beta (Homo sapiens, UniProt O14920); settings: IKK-beta (Entrez IKBKB), read-out: Percent Control
T9 construct: purchased KINOMEscan (screening service)
Procedure: as §1

MAP3K3 = MAP3K3 (Homo sapiens, UniProt Q99759); settings: read-out: Percent Control
Procedure: as §1

FGFR4 = target: T10, FGFR4 (Homo sapiens, UniProt P22455); settings: read-out: Percent Control
T10 construct: purchased KINOMEscan (screening platform)
Procedure: as §1

LTK = target: T11, LTK (Homo sapiens, UniProt P29376); settings: read-out: Percent Control
T11 construct: purchased KINOMEscan (screening platform)
T11 sequence (P29376 17-864): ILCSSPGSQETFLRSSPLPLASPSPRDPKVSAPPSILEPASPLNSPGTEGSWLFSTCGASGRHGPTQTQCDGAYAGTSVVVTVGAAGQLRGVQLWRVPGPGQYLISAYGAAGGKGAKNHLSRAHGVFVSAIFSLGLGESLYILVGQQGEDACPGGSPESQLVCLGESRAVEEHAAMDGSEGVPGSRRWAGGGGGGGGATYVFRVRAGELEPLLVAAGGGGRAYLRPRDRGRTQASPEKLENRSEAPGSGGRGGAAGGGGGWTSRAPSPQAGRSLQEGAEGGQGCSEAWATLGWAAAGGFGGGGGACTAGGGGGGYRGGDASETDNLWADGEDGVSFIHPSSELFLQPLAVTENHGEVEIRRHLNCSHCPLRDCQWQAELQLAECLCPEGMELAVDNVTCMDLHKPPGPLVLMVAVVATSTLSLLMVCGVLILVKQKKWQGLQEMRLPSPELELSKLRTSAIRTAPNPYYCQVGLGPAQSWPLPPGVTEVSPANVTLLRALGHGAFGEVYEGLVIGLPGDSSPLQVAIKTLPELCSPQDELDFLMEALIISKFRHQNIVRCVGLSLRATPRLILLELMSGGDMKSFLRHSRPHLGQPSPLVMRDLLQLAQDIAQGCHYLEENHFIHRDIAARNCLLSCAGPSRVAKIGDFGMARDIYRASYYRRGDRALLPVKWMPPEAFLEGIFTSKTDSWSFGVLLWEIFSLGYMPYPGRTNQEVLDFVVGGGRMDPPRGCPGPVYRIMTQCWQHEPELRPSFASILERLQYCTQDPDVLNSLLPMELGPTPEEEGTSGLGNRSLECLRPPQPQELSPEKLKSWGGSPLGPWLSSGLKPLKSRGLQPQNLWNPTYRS
Procedure: as §1

MEK4 = MEK4 (Homo sapiens, UniProt P45985); settings: MEK4 (Entrez MAP2K4), read-out: Percent Control
Procedure: as §1

FYN = target: T12, FYN (Homo sapiens, UniProt P06241); settings: read-out: Percent Control
T12 construct: purchased KINOMEscan (panel service)
Procedure: as §1

FLT3(ITD) = settings: 10 μM
Procedure: as §1

Cc1ccc(Nc2ncc3c(n2)N(C)CN(c2cc(NC(=O)c4cccc(C(F)(F)F)c4)ccc2C)C3)cn1 [IA-9, N-(4-methyl-3-(1-methyl-7-((6-methylpyridin-3-yl)amino)-1,4-dihydropyrimido[4,5-d]pyrimidin-3(2H)-yl)phenyl)-3-(trifluoromethyl)benzamide]
remaining binding at 10 µM (KIT(V559D)): 0% | remaining binding at 10 µM [1]: 0% | remaining binding at 10 µM (FRK): 0% | remaining binding at 10 µM (CIT): 0.1% | remaining binding at 10 µM (MLK3): 5.8% | remaining binding at 10 µM (SIK): 0.35% | remaining binding at 10 µM (YSK4): 0.3% | remaining binding at 10 µM [2]: 4.1% | remaining binding at 10 µM [3]: 3.2% | remaining binding at 10 µM (MAP3K2): 5% | remaining binding at 10 µM (FLT3(D835H)): 3.2% | remaining binding at 10 µM (p38-beta): 0% | remaining binding at 10 µM (FLT4): 0% | remaining binding at 10 µM (FLT1): 0.55% | remaining binding at 10 µM (BMX): 0.75% | remaining binding at 10 µM (EPHB6): 0.3% | remaining binding at 10 µM (MEK5): 0.3% | remaining binding at 10 µM (RET(V804L)): 0% | remaining binding at 10 µM (TRKC): 7.2% | remaining binding at 10 µM (EGFR(T790M)): 13% | remaining binding at 10 µM (CTK): 3.4% | remaining binding at 10 µM (TNK2): 2.4% | remaining binding at 10 µM (FGR): 0% | remaining binding at 10 µM (EPHA3): 11% | remaining binding at 10 µM [4]: 5% | remaining binding at 10 µM (TNK1): 12% | remaining binding at 10 µM (PIP5K1C): 21% | percent of control binding at 10 µM (TIE2): 0.45% | remaining binding at 10 µM (VEGFR2): 2% | remaining binding at 10 µM (IKK-beta): 14% | remaining binding at 10 µM (MAP3K3): 1.3% | remaining binding at 10 µM (FGFR4): 25% | remaining binding at 10 µM (LTK): 22% | remaining binding at 10 µM (MEK4): 2% | remaining binding at 10 µM (FYN): 0.05% | Percent Control (FLT3(ITD)): 0.55 % Ctrl
